Like-named read-outs stand apart in the source and are kept apart here.
Experiments:
5-HT3A-glvM3M4 [1] = target: T1, 5-HT3A-glvM3M4 (Mus musculus, UniProt P23979); assay: Whole cell patch clamp of HEK293T cells transiently expressing 5-HT3A-glvM3M4; assay type: cell-based
T1 sequence (P23979 24-326 limits assumed): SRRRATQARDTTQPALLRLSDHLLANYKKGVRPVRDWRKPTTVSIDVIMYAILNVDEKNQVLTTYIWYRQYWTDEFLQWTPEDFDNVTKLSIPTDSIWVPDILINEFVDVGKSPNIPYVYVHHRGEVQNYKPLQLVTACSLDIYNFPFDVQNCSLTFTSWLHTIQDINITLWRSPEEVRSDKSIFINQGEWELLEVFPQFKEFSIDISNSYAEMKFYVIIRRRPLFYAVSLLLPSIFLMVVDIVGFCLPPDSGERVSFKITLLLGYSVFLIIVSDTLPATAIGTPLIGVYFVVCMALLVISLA

5-HT3A [2] = target: T2, 5-HT3A (Mus musculus, UniProt P23979); assay: Whole cell patch clamp of HEK293T cells transiently expressing 5-HT3A; assay type: cell-based; settings: HEK293T cells expressing 5-HT3A
T2 sequence (P23979 24-489): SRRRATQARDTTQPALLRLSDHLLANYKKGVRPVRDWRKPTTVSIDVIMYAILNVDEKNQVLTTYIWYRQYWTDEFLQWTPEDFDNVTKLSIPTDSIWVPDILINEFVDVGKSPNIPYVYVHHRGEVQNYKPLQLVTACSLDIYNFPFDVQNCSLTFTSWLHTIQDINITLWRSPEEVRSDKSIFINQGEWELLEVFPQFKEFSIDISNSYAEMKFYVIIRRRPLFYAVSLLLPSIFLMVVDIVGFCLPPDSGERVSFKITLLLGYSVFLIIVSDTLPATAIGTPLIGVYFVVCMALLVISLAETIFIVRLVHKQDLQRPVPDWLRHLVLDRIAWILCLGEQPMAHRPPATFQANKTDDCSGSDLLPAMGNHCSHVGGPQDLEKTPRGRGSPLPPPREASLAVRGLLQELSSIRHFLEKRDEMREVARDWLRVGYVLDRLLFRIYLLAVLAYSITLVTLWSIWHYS

5-HT3A [3] = target: T2, 5-HT3A; assay: Two-electrode voltage clamp of Xenopus oocytes expressing 5-HT3A wild type; assay type: cell-based
5-HT3A-glvM3M4 [4] = target: 5-HT3A-glvM3M4 (Mus musculus, UniProt P23979); assay type: cell-based
mouse 5-HT3A receptors = settings: competitive antagonist; ref Costall et al., 1987; cited from earlier work

Question: With `NCCc1c[nH]c2ccc(O)cc12` [5-HT, 5-hydroxytryptamine] as the compound, how does the “whole cell currents evoked” value (5-HT3A-glvM3M4 [1]; HEK293T cells expressing 5-HT3A-glvM3M4, 5-HT 1 μM) read?
Answer: 1 to 5 nA

Question: And the “whole cell currents evoked” value (5-HT3A [2]; 5-HT 1 μM)?
Answer: 1 to 5 nA

Question: For `Cc1cccc(C)c1NC(=O)C[N+](C)(C)C` [QX-222], which “inhibition of 5-HT EC70 currents” value (5-HT3A [3]; 5-HT3A-wt, QX-222 20 μM, n = 6) is on record?
Answer: 80 ± 4%

Question: And the “inhibition of 5-HT EC70 currents” value (5-HT3A-glvM3M4 [4]; 5-HT3A-glvM3M4, QX-222 20 μM, n = 6)?
Answer: 79 ± 2%

Question: For `COc1ccc([C@@H]2Sc3ccccc3N(CCN(C)C)C(=O)[C@@H]2OC(C)=O)cc1` [diltiazem], which IC50 (5-HT3A [3]) is on record?
Answer: 16 ± 1 µM

Question: What about the IC50 (5-HT3A-glvM3M4 [4]) of the same compound?
Answer: 12 ± 3 µM

Question: With `Cc1nccn1CC1CCc2c(c3ccccc3n2C)C1=O` (centres unmarked) [ondansetron] as the compound, how does the “inhibition of 5-HT currents” value (5-HT3A [3]; 5-HT3A, EC30 concentration of 5-HT with ondansetron at 1/3 of the 5-HT concentration, n = 3) read?
Answer: 98.2 ± 0.4%

Question: And the “inhibition of 5-HT currents” value (5-HT3A-glvM3M4 [4]; 5-HT3A-glvM3M4, EC30 concentration of 5-HT with ondansetron at 1/3 of the 5-HT concentration, n = 4)?
Answer: 98.8 ± 0.4%

Question: And the “inhibition of whole cell currents evoked by 1 μM 5-HT” value (5-HT3A-glvM3M4 [1]; HEK293T cells expressing 5-HT3A-glvM3M4, 100 nM ondansetron)?
Answer: totally inhibited

Question: And the “inhibition of whole cell currents evoked by 1 μM 5-HT” value (5-HT3A [2]; 100 nM ondansetron)?
Answer: totally inhibited

Question: And the “IC50 for inhibition of mouse 5-HT3A receptors” value (mouse 5-HT3A receptors)?
Answer: high picomolar

Question: Which results are given for picrotoxin?
Answer: IC50 (5-HT3A [3]; read-out: picrotoxin IC50, 5-HT3A-wt, coapplied with 5-HT EC30 concentration, n = 3): 60 ± 10 µM; fold lower IC50 in 5-HT3A-glvM3M4 than in wild type (5-HT3A-glvM3M4 [4]; picrotoxin IC50, 5-HT3A-glvM3M4 versus 5-HT3A-wt): 10 fold; IC50 (5-HT3A-glvM3M4 [4]; read-out: picrotoxin IC50, 5-HT3A-glvM3M4, coapplied with 5-HT EC30 concentration, n = 6): 6.8 ± 1.1 µM
